From patent publication EP0393530B1, “5,11-dihydro-6H-pyrido[2,3,-b][1,4]benzodiazepin-6-ones and -thiones and their use in the prevention or treatment of AIDS” (BOEHRINGER INGELHEIM PHARMACEUTICALS INC., priority 1989, dated 1990)

Assays:
[1] = biological target: T1, HIV-1 reverse transcriptase (Human immunodeficiency virus type 1 group M subtype B, UniProt P03367); assay: Reverse Transcriptase (RT) Assay; assay type: biochemical; conditions: RNA-dependent DNA polymerase activity
T1 construct: Reverse transcriptase enzyme from the LAV strain of Human Immunodeficiency Virus (HIV-1); made in house; host or cells: E. coli JM109, clone pBRTprt1+ in vector pIBI21 (lac promoter, IPTG induction)
Source text: Utilizing the Reverse Transcriptase (RT) Assay described below, compounds can be tested for their ability to inhibit the RNA-dependent DNA polymerase activity of HIV RT. Certain specific compounds, described in the Examples which appear below, were so tested.
Among the enzymes for which Human Immunodeficiency Virus (HIV-1) encodes is a reverse transcriptase (1), so-named because it transcribes a DNA copy from an RNA template. This activity can be quantitatively measured in a cell-free enzyme assay which has been previously described (2), and is based upon the observation that reverse transcriptase is able to use a synthetic template [poly r(C) primed with oligo d(G)] to transcribe a radio-labelled, acid-precipitable DNA strand utilizing ³H-dGTP as a substrate.
a) Preparation of the enzyme Reverse transcriptase enzyme from the LAV strain of Human Immunodeficiency Virus (HIV-1) (1) was isolated from the bacterial strain JM109 (3) expressing the DNA clone pBRTprt1+ (2) which is under the control of the lac promotor in the expression vector pIBI21 (4). An overnight culture grown in 2XYT medium (37°C, 225 rpm) (5) supplemented with 100 µg/ml ampicillin for positive selection is inoculated at a 1:40 dilution into M9 medium supplemented with 10µg/ml thiamine, 0.5% casamino acids, and 50 µg/ml ampicillin (5). The culture is incubated (37°C, 225 rpm) until it reaches an OD540 of 0.3-0.4. At that time the repressor inhibitor IPTG (isopropyl b-D-thiogalactopyranoside) is added to 0.5mM and incubated for 2 additional hours. Bacteria are pelleted, resuspended in a 50mM Tris, 0.6mM EDTA, 0.375M NaCl buffer and digested by the addition of lysozyme (1mg/ml) for 30 minutes on ice. The cells are lysed by the addition to 0.2% NP-40 and brought to 1M NaCl. After removal of the insoluble debris by centrifugation, the protein is precipitated by the addition of 3 volumes of saturated aqueous ammonium sulfate. The enzyme is pelleted, resuspended in RT buffer (50mM Tris pH 7.5, 1mM EDTA, 5mM DTT, 0.1% NP-40, 0.1M NaCl, and 50% glycerol) and stored at -70°C for further use. b) Composition of 2X concentrated stock reaction mixture
The 2X concentrated stock reaction mixture is aliquoted and stored at -20°C. The mixture is stable and thawed for use in each assay. This enzyme assay has been adapted to a 96 well microtiter plate system, and has been previously described (6). Tris buffer (50 mM, pH 7.4), vehicle (solvent diluted to match the compound dilution), or compounds in vehicle are dispensed into 96-well miciotiter plates (10µl/well; 3 wells/compound). The HIV RT enzyme is thawed, diluted in 50mM Tris pH 7.4 so that fifteen µl of diluted enzyme contain 0.001 Unit (one unit is that amount of enzyme to transform 1 micromole of substrate per minute at 25°C), and 15µl are dispensed per well. Twenty µl of 0.12-0.5M EDTA are added to the first three wells of the microtiter plate. EDTA chelates the Mg⁺⁺ present and prevents reverse transcription. This group serves as background polymerization which is subtracted from all other groups. Twenty-five µl of the 2X reaction mixture are added to all wells and the assay is allowed to incubate at room temperature for 60 minutes. The assay is terminated by precipitating the DNA in each well with 50µl of trichloracetic acid (TCA) (10% w/v) in sodium pyrophosphate (1% w/v). The microtiter plate is incubated for 15 minutes at 4°C and the precipitate is fixed onto #30 glass fiber paper (Schleicher & Schuell) using a Skatron semi-automatic harvester. The filters are then washed with additional TCA (5%) containing sodium pyrophosphate (1%), rinsed with aqueous ethanol (70%), dried, and transferred to scintillation vials (6). Each vial receives 2 mls of scintillation cocktail and is counted in a Beckman beta counter.
The calculation for percent inhibition is as follows: [formula]

[2] = tested on: HTLV-IIIB strain of HIV-1; assay: Human T-Cell Culture Assay (syncytia formation in c8166 cells); assay type: cell-based; conditions: Human immunodeficiency virus 1, IIIB, 96 h, syncytia four days after virus challenge
Protocol: In order to confirm that compounds which are active in the RT Assay also have the ability to inhibit HIV replication in a living system, compounds according to the invention were also tested in the Human T-Cell Culture Assay described below.
Assay Theory: Formation of syncytia is a feature of in vitro cultures of CD4+ T-cells infected with HIV-1. In this assay, T-cells are treated with a putative replication inhibiting compound and then infected with HIV-1. After incubation the culture is checked for the formation of syncytia. The absence or reduction is the number of syncytia is used as a measure of the test compound's ability to inhibit HIV replication.
Assay Method: The target cells, designated c8166, are a subclone of human lymphoma cells of T-cell origin and are established at an initial density of 5x10⁴ per 100 µl in RPMI 1640 (+ 10% fetal bovine serum) culture medium in 96 well flat bottom plates. A selected amount of test compound, dissolved in DMSO is included. After 24 hours, 50-100 TCID50's (the dose that results in induced effect in 50% of test cultures) of the HTLV-IIIB strain of HIV-1 (2) are innoculated into each culture. Control cultures receive compound or virus only. […] The percent inhibition by the test compound is determined by comparison with control values. […]

[3] = MTT Assay for Cellular Cytotoxicity; assay type: cell-based; conditions: human, H9 cells, five days, EC₅₀ called the highest non-toxic concentration, read-out: Cytotoxity Assay (EC₅₀)
Protocol: In order to roughly assess the cytotoxicity of the compounds provided by the invention, several such compounds were tested in the MTT Cellular Cytotoxicity Assay described below. Compounds having a relatively high EC₅₀ are preferred.
The MTT [3-(4,5-dimethylthiazol-2-yl)-2,5-diphenyl tetrazolium bromide) assay is based on cleavage of tetrazolium bromide by metabolically active cells, resulting in a highly quantitative blue color. This assay has been previously described (1) but his been optimized for the purposes of the testing reported herein.
The H9 cell line (2), an established human lymphoma suspension cell line grown in RPMI 1640 supplemented with 10% fetal bovine serum is used as the target cell line in the assay. Cells (100µl) are plated in microtest plate wells at a concentration of 10⁵ cells per ml in the presence of varying concentrations of inhibitor. The cells are incubated at 37°C in a humidified CO₂ incubator. Five days later, 20µl of MTT (5mg/ml in RPMI 1640, sonicated, 0.2 micron filtered, and stored at 4°C) is added to each well. After 4 hours additional incubation at 37°C, 60µl of Triton-X is added to each well and thoroughly mixed to aid the solubilization of the crystals. Absolute ethanol (5µl) is added to each well and the resulting mixture is incubated for 30 minutes at 60°C and immediately read on a plate reader (Dynatech) at a wavelength of 570nm. […]

SMILES | inhibition at 10 µg/mL [1] | other results
C=C(Cl)CN1C(=O)c2ccccc2N(CC)c2ncccc21 [Example 1, 5-(2-Chloro-2-propenyl)-11-ethyl-5,11-dihydro-6H-pyrido [2,3-b][1,4]benzodiazepin-6-one] | 41% | –
Cc1ccc2c(c1)C(=O)N(C)c1ccc(C)nc1N2C [Example 2, 2,5,8,11-Tetramethyl-5,11-dihydro-6H-pyrido[2,3-b][1,4]benzodiazepin-6-one] | 50% | –
CCN1C(=O)c2cccc(C)c2N(CC)c2ncccc21 [Example 3, 5,11-Diethyl-10-methyl-5,11-dihydro-6H-pyrido[2,3-b][1,4]benzodiazepin-6-one] | 87% | –
CCN1c2ccc(C)cc2C(=O)N(C)c2cccnc21 [Example 4, 5,8-Dimethy-11-ethyl-5,11-dihydro-6H-pyrido[2,3-b][1,4]benzodiazepin-6-one] | 91% | inhibition at 19 µM ([2]; @19µM): 100%; CC50 at 120 h [3]: 40 µM
Cc1ccc2c(n1)N(C)c1c(C)cccc1C(=O)N2C [Example 5, 2,5,10,11-Tetramethyl-5,11-dihydro-6H-pyrido[2,3-b][1,4]benzodiazepin-6-one] | 84% | –
CC(C)(C)OC(=O)CN1c2ccccc2C(=O)Nc2cccnc21 [Example 6] | 86% | –
CCN1C(=O)c2ccccc2N(C)c2nc(Cl)ccc21 [Example 7, 2-Chloro-5-ethyl-11-methyl-5,11-dihydro-6H-pyrido[2,3-b] [1,4]benzodiazepin-6-one] | 43% | –
Cc1ccc2c(c1)C(=O)N(C)c1cccnc1N2C [Example 8, 5,8,11-Trimethyl-5,11-dihydro-6H-pyrido[2,3-b][1,4]benzodiazepin-6-one] | 40% | –
CN1c2ccccc2C(=O)Nc2cccnc21 [Example 9a, 11-Methyl-5,11-dihydro-6H-pyrido[2,3-b][1,4]benzodiazepin-6-one] | 17% | –
CCN1c2ccccc2C(=O)Nc2cccnc21 [Example 9b, 11-Ethyl-5,11-dihydro-6H-pyrido[2,3-b][1,4]benzodiazepin-6-one] | 82% | –
O=C1Nc2cccnc2Nc2ccccc21 [Example 9c, 5,11-dihydro-6H-pyrido[2,3-b][1,4]benzodiazepin-6-one] | 55% | –
CCN1C(=O)c2ccccc2N(C)c2ncccc21 [Example 9d, 5-Ethyl-11-methyl-5,11-dihydro-6H-pyrido[2,3-b][1,4]benzodiazepin-6-one] | 24% | –
CCCN1C(=O)c2ccccc2N(C)c2ncccc21 [Example 9e, 5-n-Propyl-11-methyl-5,11-dihydro-6H-pyrido[2,3-b][1,4]benzodiazepin-6-one] | 38% | –
CCN1c2ccccc2C(=O)N(C)c2cccnc21 [Example 9f, 5-Methyl-11-ethyl-5,11-dihydro-6H-pyrido[2,3-b][1,4]benzodiazepin-6-one] | 94% | –
CCN1C(=O)c2ccccc2N(CC)c2ncccc21 [Example 9g, 5,11-Diethyl-5,11-dihydro-6H-pyrido[2,3-b][1,4]benzodiazepin-6-one] | 87% | inhibition at 75 µM ([2]; @75µM): 100%; CC50 at 120 h [3]: 100 µM
C=CCN1C(=O)c2ccccc2N(CC)c2ncccc21 [Example 9h, 5-(2-Propenyl)-11-ethyl-5,11-dihydro-6H-pyrido[2,3-b][1,4]benzodiazepin-6-one] | 70% | –
